# Results as given in BindingDB's records for doi:10.1016/j.chembiol.2003.08.010 (Brigham and Women's Hospital, 2003).
# Target: T1, Ubiquitin carboxyl-terminal hydrolase isozyme L1 (Mus musculus, UniProt Q9R0P9)
# T1 sequence (Q9R0P9 whole entry): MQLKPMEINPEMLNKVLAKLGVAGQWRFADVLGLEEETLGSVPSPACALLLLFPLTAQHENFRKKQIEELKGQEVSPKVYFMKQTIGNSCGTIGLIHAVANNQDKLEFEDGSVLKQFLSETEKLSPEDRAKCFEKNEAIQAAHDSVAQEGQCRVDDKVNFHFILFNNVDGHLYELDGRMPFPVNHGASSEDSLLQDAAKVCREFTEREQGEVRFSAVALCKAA
# Assay: Inhibition Activity Assay
# Conditions: pH 7.6; 25 °C
# From the text: (§1) Inhibition activity and selectivity for UCH-L1 and UCH-L3.
row,SMILES,IC50
1,CC(C)(C)OC(=O)[C@H](Cc1ccccc1)NC(=O)c1[nH]cnc1C(=O)Nc1cccc(Cl)c1,17 µM
2,COC(=O)[C@H]1[C@H](CCc2ccccc2)NC(=O)N(Cc2ccccc2)[C@@H]1C,51 µM
3,CN1CCN(C2Cc3ccc(Cl)cc3Sc3ccc(F)cc32)CC1 (configuration not stated),321 µM
4,Cc1ccccc1C(=O)Nc1scc(-c2ccc(Br)cc2)c1C(=O)O,6 µM
5,O=C1C=CC([N+](=O)[O-])=CC1/C=N/NC(=O)C(O)(c1ccccc1)c1ccccc1 (configuration not stated),9.5 µM
6,COc1ccc(N=Nc2cc(-c3ccccc3)ccc2O)cc1,12 µM
7,CCCCn1c(=O)c(C(=O)NCc2ccccc2)c(O)c2ccccc21,6.1 µM
8,Cc1ccc(C(=O)NC(=S)NNC(=O)c2cccc([N+](=O)[O-])c2)cc1,36 µM
9,"CCCOc1ccc(/C=C/c2c([N+](=O)[O-])c(=O)n(C)c(=O)n2C)cc1 [1,3-dimethyl-5-nitro-6-[(E)-2-(4-propoxyphenyl)vinyl]pyrimidine-2,4-quinone]",0.81 µM
10,"COc1cccc(NC(=O)Nc2nc(SC(C)(C)C)ns2)c1 [1-(3-tert-butylsulfanyl-1,2,4-thiadiazol-5-yl)-3-(3-methoxyphenyl)urea]",16 µM
11,"CCSc1nsc(NC(=O)Nc2cccc(F)c2)n1 [1-[3-(ethylthio)-1,2,4-thiadiazol-5-yl]-3-(3-fluorophenyl)urea]",16 µM
12,"Cc1cc(Cl)c2oc(C(=O)N3CCC(O)(c4ccccc4)CC3)c(C)c2c1 [1-[(7-chloro-3,5-dimethyl-1-benzofuran-2-yl)carbonyl]-4-phenylpiperidin-4-ol]",1.2 µM
13,NC(=S)NN=Cc1ccc(C23CC4CC(CC(C4)C2)C3)cc1 [1-[[4-(1-adamantyl)phenyl]methylideneamino]thiourea],52 µM
14,CCCCn1c(=O)c(C(=O)NCCc2ccccc2)c(O)c2ccccc21 [1-butyl-2-oxidanyl-4-oxidanylidene-N-(2-phenylethyl)quinoline-3-carboxamide],12 µM
15,Cc1ccc(-c2cc(-c3ccccc3)nc(N(C)N)n2)cc1 [1-methyl-1-[4-(4-methylphenyl)-6-phenylpyrimidin-2-yl]hydrazine],4.1 µM
16,"COc1ccc2nc(C3CCCCC3)nc(C3CCCCC3)c2c1 [2,4-Dicyclohexyl-6-methoxy-quinazoline]",126 µM
17,Cc1cccc(OCC(=O)Nc2ccncc2)c1 [2-(3-methylphenoxy)-N-pyridin-4-yl-ethanamide],36 µM
18,"CCN(CC)c1nc(Nc2ccc([N+](=O)[O-])cc2)nc(N(CC)CC)n1 [2-N,2-N,4-N,4-N-tetraethyl-6-N-(4-nitrophenyl)-1,3,5-triazine-2,4,6-triamine]",2.9 µM
19,Cc1ccc(Cn2c(C(CO)Nc3nc(-c4ccc(F)cc4)cs3)nc3ccccc32)cc1 (configuration not stated) [2-[4-(4-Fluoro-phenyl)-thiazol-2-ylamino]-2-[1-(4-methyl-benzyl)-1H-benzoimidazol-2-yl]-ethanol],8.8 µM
20,"CCOC(=O)C1=C(C)N=c2sc(=Cc3ccc(OCC(=O)O)c(OC)c3)c(=O)n2C1c1ccc(Cl)cc1 (configuration not stated) [2-[4-[[6-carbethoxy-5-(4-chlorophenyl)-3-keto-7-methyl-5H-thiazolo[3,2-a]pyrimidin-2-ylidene]methyl]-2-methoxy-phenoxy]acetic acid]",43 µM
21,COc1ccccc1-c1cc(-c2ccccc2)nc(SCC(=O)O)c1C#N [2-[[3-cyano-4-(2-methoxyphenyl)-6-phenyl-2-pyridinyl]thio]acetic acid],0.94 µM

row,SMILES,IC50
1,O=[N+]([O-])c1c(Nc2cccc(O)c2)cc(Cl)c2nonc12 [3-[(7-chloro-4-nitro-benzofurazan-5-yl)amino]phenol],> 100 µM
2,Cc1cccc(C(=O)Nc2scc(-c3ccc(Br)cc3)c2C(=O)O)c1 [4-(4-bromophenyl)-2-[(3-methylphenyl)carbonylamino]thiophene-3-carboxylic acid],6.2 µM
3,O=C(Nc1scc(-c2ccc(Br)cc2)c1C(=O)O)c1ccccc1F [4-(4-bromophenyl)-2-[[(2-fluorophenyl)-oxomethyl]amino]-3-thiophenecarboxylic acid],12 µM
4,c1ccc(-c2nc(C3CCCCC3)c3ccccc3n2)cc1 [4-Cyclohexyl-2-phenyl-quinazoline],75 µM
5,"CC(=NNC(=O)c1ccc(C)cc1)c1c(C)[nH]n(-c2ccccc2)c1=O [4-Methyl-benzoic acid N'-[1-(3-methyl-5-oxo-1-phenyl-1,5-dihydro-pyrazol-4-ylidene)-ethyl]-hydrazide]",95 µM
6,"CC(C)c1ccc(C=Nn2c(-c3ccccc3)n[nH]c2=S)cc1 [4-[(4-Isopropyl-benzylidene)-amino]-5-phenyl-4H-[1,2,4]triazole-3-thiol]",13 µM
7,"Brc1cc(-c2ccccc2)nc(-c2ccccc2)n1 [4-bromo-2,6-diphenyl-pyrimidine]",13 µM
8,"O=C1C=C(N2CCCCC2)c2ccccc2C1=O [4-piperidin-1-ylnaphthalene-1,2-dione]",78 µM
9,CC(C)=CCc1cc([C@@H]2COc3c(ccc4c3C=CC(C)(C)O4)C2)c(O)cc1O [5'-prenyl-glabridin],6.1 µM
10,"CC1(C)CC(=O)C(C2C3=C(CC(C)(C)CC3=O)Oc3c(Br)cc(Br)cc32)C(=O)C1 (configuration not stated) [5,7-bis(bromanyl)-9-(4,4-dimethyl-2-oxidanyl-6-oxidanylidene-cyclohexen-1-yl)-3,3-dimethyl-4,9-dihydro-2H-xanthen-1-one]",12 µM
11,"Cc1nc(N=NCc2ccc3c(c2)OCO3)sc1C [(4,5-dimethylthiazol-2-yl)-(piperonylideneamino)amine]",5.8 µM
12,"COc1cccc(CN=Nc2cc(N3CCOCC3)ncn2)c1O [(6E)-2-methoxy-6-[[N'-(6-morpholinopyrimidin-4-yl)hydrazino]methylene]cyclohexa-2,4-dien-1-one]",6.1 µM
13,"CCOc1ccc(CN=Nc2cc(N3CCOCC3)nc(C)n2)c(O)c1 [(6E)-3-ethoxy-6-[[2-(2-methyl-6-morpholin-4-yl-pyrimidin-4-yl)hydrazinyl]methylidene]cyclohexa-2,4-dien-1-one]",19 µM
14,O[C@@H]1CCCN2CCc3c([nH]c4ccccc34)[C@H]12 [MLS000728593],3.4 µM
15,"O=C1C([N+](=O)[O-])=CC(Cl)=CC1/C=N/NC(=O)C(O)(c1ccccc1)c1ccccc1 (configuration not stated) [N''''-[(E)-(3-chloro-5-nitro-6-oxocyclohexa-2,4-dien-1-ylidene)methyl]-2-hydroxy-2,2-diphenylacetohydrazide]",16 µM
16,O=C(NC12CC3CC(CC(C3)C1)C2)c1ccc([N+](=O)[O-])o1 [N-(1-adamantyl)-5-nitrofuran-2-carboxamide],6.5 µM
17,COc1cc(OC)c([C@H]2C=C(C)[C@H]3C[C@@H]2C3(C)C)c(OC)c1 [SMR000475707],80 µM
18,Cc1c(Cl)cccc1-c1ccc(CNCc2ccccn2)o1 [[5-(3-Chloro-2-methyl-phenyl)-furan-2-ylmethyl]-pyridin-2-ylmethyl-amine],> 100 µM
19,CC1Oc2cc3oc4c(O)c5c(cc4c(=O)c3c(O)c2C1(C)C)C=CC(C)(C)O5 (configuration not stated) [gerontoxanthone A],4.1 µM
20,CC1Oc2cc3oc4c(O)c(O)ccc4c(=O)c3c(O)c2C1(C)C (configuration not stated) [toxyloxanthone C],3.4 µM

# Results, then the compound that gave them:
row,IC50,SMILES
1,8.8 µM,CC(C)=CCOc1ccc([C@@H]2COc3c(ccc4c3C=CC(C)(C)O4)C2)c(O)c1 [MLS000697599]
2,1.3 µM,Cc1ccc(OCCCCc2c(C)n[nH]c2C)cc1 [MLS001001654]
3,2.7 µM,CC(C)NC(=S)NC(c1ccccc1)(c1ccccc1)c1ccccc1 [MLS001008525]
4,114 µM,COc1ccc(CC2=CC(=O)c3ccccc3C2=O)cc1 [MLS001163415]
5,> 100 µM,COc1ccc(Nc2nc(NN)nc(Nc3ccc(OC)cc3)n2)cc1 [MLS001185433]
6,50 µM,CC[n+]1c(/C=C/N(C)c2ccccc2)n(-c2ccccc2)c2ccc(-c3nc4ccccc4s3)cc21 [MLS001207496]
7,15 µM,CC(C)(C)c1ccc(O)c(N=Cc2c(O)ccc3ccccc23)c1 [MLS001211069]
8,18 µM,COc1cc(/C=C2/SC(=S)N(Cc3ccccc3)C2=O)ccc1O [MLS001211321]
9,12 µM,CC(C)=CCc1c2c(c(O)c3c(=O)c4c(oc13)-c1cc(O)c(O)cc1OC4C=C(C)C)C=CC(C)(C)O2 (configuration not stated) [SMR000470928]
10,1.8 µM,C=CC(C)(C)c1c(O)c(CC=C(C)C)c(O)c2c(=O)c3ccc(O)c(O)c3oc12 [SMR000470960]
11,45 µM,COc1cc(C)c(C(=O)CC(=O)c2c(C)cc(OC)cc2C)c(C)c1 [SMR000475659]
12,22 µM,COc1ccc(-c2csc(NC(=O)c3ccc(C(C)(C)C)cc3)c2C(=O)O)cc1 [SMR000475974]
13,21 µM,COc1cccc(C(=O)Oc2ccc(CN=Nc3ccc(C(=O)O)cc3)cc2OC)c1 [SMR000502791]
14,14 µM,Oc1c(Br)cc(Br)cc1CNc1cccc2cccnc12 [SMR000503121]
15,19 µM,Cc1ccc(OCCn2c(S)nc3ccccc32)c(C(C)C)c1 [SMR000515074]
16,4.1 µM,Clc1cccc(Cl)c1C1Nc2cccc3cccc(c23)N1 [SMR000515760]
17,12 µM,CCCc1cc(=O)n2[nH]c(C)c(-c3ccc(Cl)cc3)c2n1 [SMR000518792]

# Target: T2, Ubiquitin carboxyl-terminal hydrolase isozyme L3 (Mus musculus, UniProt Q9JKB1)
# T2 sequence (Q9JKB1 whole entry): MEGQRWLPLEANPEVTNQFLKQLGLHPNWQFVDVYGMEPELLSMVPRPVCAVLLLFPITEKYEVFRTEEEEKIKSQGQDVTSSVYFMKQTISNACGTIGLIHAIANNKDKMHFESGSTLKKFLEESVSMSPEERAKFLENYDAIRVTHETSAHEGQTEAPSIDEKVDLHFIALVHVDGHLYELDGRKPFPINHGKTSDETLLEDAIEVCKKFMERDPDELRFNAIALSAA
# Assay: Inhibition Activity Assay
# Conditions: pH 7.6; 25 °C
# From the text: as §1
row,IC50,SMILES
1,116 µM,COC(=O)[C@H]1[C@H](CCc2ccccc2)NC(=O)N(Cc2ccccc2)[C@@H]1C
2,32 µM,Cc1ccccc1C(=O)Nc1scc(-c2ccc(Br)cc2)c1C(=O)O
3,17 µM,"CCCOc1ccc(/C=C/c2c([N+](=O)[O-])c(=O)n(C)c(=O)n2C)cc1 [1,3-dimethyl-5-nitro-6-[(E)-2-(4-propoxyphenyl)vinyl]pyrimidine-2,4-quinone]"
4,25 µM,"Cc1cc(Cl)c2oc(C(=O)N3CCC(O)(c4ccccc4)CC3)c(C)c2c1 [1-[(7-chloro-3,5-dimethyl-1-benzofuran-2-yl)carbonyl]-4-phenylpiperidin-4-ol]"
5,113 µM,Cc1ccc(-c2cc(-c3ccccc3)nc(N(C)N)n2)cc1 [1-methyl-1-[4-(4-methylphenyl)-6-phenylpyrimidin-2-yl]hydrazine]
6,47 µM,"COc1ccc2nc(C3CCCCC3)nc(C3CCCCC3)c2c1 [2,4-Dicyclohexyl-6-methoxy-quinazoline]"
7,18 µM,"CCN(CC)c1nc(Nc2ccc([N+](=O)[O-])cc2)nc(N(CC)CC)n1 [2-N,2-N,4-N,4-N-tetraethyl-6-N-(4-nitrophenyl)-1,3,5-triazine-2,4,6-triamine]"
8,23 µM,COc1ccccc1-c1cc(-c2ccccc2)nc(SCC(=O)O)c1C#N [2-[[3-cyano-4-(2-methoxyphenyl)-6-phenyl-2-pyridinyl]thio]acetic acid]
9,0.6 µM,c1ccc(-c2nc(C3CCCCC3)c3ccccc3n2)cc1 [4-Cyclohexyl-2-phenyl-quinazoline]
